Assay results: US20110059953A1, “COMPOUNDS FOR USE IN STABILIZING P53 MUTANTS” (priority 2008, published 2011)

Key:
T-p53C-Y220C [1] = target: T1, T-p53C-Y220C (Homo sapiens, UniProt P04637, M133L/N239Y/N268D/V203A/Y220C); assay: Equilibrium sedimentation analytical ultracentrifugation (AUC) binding
T1 construct: For all other experiments, the DNA coding for residues 94-312 of T-p53C was inserted into a modified pET24a(+) vector; 6xHis tag + B. stearothermophilus dihydrolipoyl acetyltransferase lipoyl domain (aa 1-85) + TEV site (N, cleaved yes); made in house; host or cells: Escherichia coli BL21 (DE3) or C41 (DE3)
Source text: Analytical centrifugation studies the distribution of molecules under gravity force. In equilibrium sedimentation experiment the solute concentrates at the bottom of the cell and forms a concentration gradient. The steepness of this gradient depends on the molecular weight of the solute, the heavier the molecule the steeper the gradient. Small molecules have a molecular weight around 500 Da, and p53 core domain is large protein molecule of 24.5 kDa. Under the experimental conditions chosen, small molecules form a very shallow, practically negligible gradient, while p53 presents a very well defined sedimentation profile. […] By monitoring the distribution of the small molecule via absorbance at wavelengths above 300 nm (the ligands must absorb light in this spectral range for the method to work) so that signal is not affected by the absorbance of the protein (e.g., 310, 340 and 380 nm), it is possible to determine if the small molecule binds to the protein, and in many cases measure the dissociation constant. […]
Equilibrium sedimentation experiments were performed on a Beckman XL-I ultracentrifuge using Ti-50 rotor and 6-sector cells. at speeds of 30,000 and 40,000 rpm at 10° C. Up to 21 samples were analysed simultaneously. […] The samples contained ligand at concentration of 15 μM-40 μM, with absorbance of 0.3-0.5 at one of the selected wavelengths and 100 μM T-p53-Y220C.

T-p53C-Y220C [2] = target: T1, T-p53C-Y220C; assay: Thermal denaturation using fluorescence (Sypro Orange); assay type: binding; details: further studies on compounds described above; 10 μM protein
Procedure: This was by an adaption of the classical procedure (e.g. ref A6). Thermal unfolding was monitored by the binding of the dye Sypro Orange (5×) using a Rotor-gene 6000 (Corbett Life Science) at 270 K/h in 25 mM NaPi, 150 mM NaCl and 5 mM DTT, pH 7.2 with a protein concentration of 10 μM.
(§1) Where listed, S.E. is the calculated standard error.
as §1

T-p53C-Y220C [3] = target: T1, T-p53C-Y220C; assay: Thermal denaturation using capillary DSC; assay type: binding
Procedure: Differential Scanning calorimetry (DSC) was used to probe the stabilising effect of the ligands on […]. For a reversible two-state system, the melting temperature, Tm, is the transition temperature where the folded and unfolded states are equally populated.
DSC experiments were performed using a Microcal VP-Capillary DSC instrument (Microcal, Amherst, Mass.) with an active cell volume of ˜125 μl. Protein samples were buffer exchanged into 25 mM NaPi, pH 7.2, 150 mM NaCl, 5 mM DTT. This buffer + the respective concentration of ligand/DMSO was used for baseline scans, so that the only difference between sample and reference cell or sample cell in the measurement and both cells in the baseline scan is the presence of the protein. A final concentration of 20 μM T-p53C-Y220C was used. A pressure of 2.5 bars (nitrogen) was applied to the cell. Temperatures from 10 to 85° C. were scanned at a rate of 250° C./h, with a filtering period of 4 seconds and feedback gain/mode set at medium. Data were analysed with ORIGIN software (Microcal).
The following tables show the results of the thermal denaturation studies using capillary DSC, where ΔTm is the increase in Tm on adding 250 μM of the test compound. The Dunnett significance test (P) value given is the calculated probability that the change in Tm is insignificant.

T-p53C-Y220C [4] = target: T1, T-p53C-Y220C; assay: 1H/15N-HSQC NMR chemical shift binding (KD NMR)
Procedure: Uniformly ^15N-labelled core domains of T-p53C-Y220C was expressed and purified according to the above described protocol. The low molecular-weight compounds were dissolved in d^6-DMSO to make 10 mM stock solutions. To screen compound mixtures by chemical shift mapping, 10 μl of each of 4 different compounds were mixed together and 25 μl of this mixture was added to 25 μl of D2O and 500 μl of 70 μM T-p53C-Y220C (in 25 mM NaPi, 150 mM NaCl and 5 mM DTT, pH 7.2 ). […] NMR samples were freshly prepared and kept sealed under argon after degassing by repeated cycles of pumping the NMR tube under low pressure (while gently tapping the tube) and returning to atmospheric pressure using a stream of argon gas. This was done to maintain sample stability.
Using Bruker's TopSpin 2.0 software, the number of complex points in t1 was doubled by forward complex linear prediction and shifted squared sine bell window functions were applied to both dimensions prior to zero filling and Fourier transformation. A digital resolution of 2.0 Hz/point in the ^1H frequency dimension and 4.7 Hz/point in the ^15N frequency dimension was used. […] An in-house script was used to analyse chemical shift differences and map these onto PDB protein structures.
For certain compounds an array of different concentrations were used to derive KD values (KD NMR) by fitting a saturation binding equation (Δδ=c+a*[L]/(KD+[L])) to the concentration-dependent chemical shift changes of the relevant shifting peaks.

## CCn1c2ccccc2c2cc(CNC)ccc21 [PK083]
T-p53C-Y220C [1]
  Kd: 170 µM
T-p53C-Y220C [2]
  ΔTm (° C.): 0.76 °C
T-p53C-Y220C [3]; at 316-318 K, read-out: approximate KD from DSC stabilization fit
  Kd: ~140 µM
T-p53C-Y220C [3]; increase in Tm on adding 250 μM of the test compound, 20 μM protein
  ΔTm: 0.75 °C
T-p53C-Y220C [4]; KD (@ 20° C.) μM, further NMR studies, some revised values
  Kd: 114 µM
T-p53C-Y220C [4]; KD (@ 20° C.), 1H/15N-HSQC
  Kd: 167 µM
